Data: patent publication US20150239835A1, “COMPOSITION, SYNTHESIS, AND USE OF A NEW CLASS OF ISONITRILES” (DUQUESNE UNIVERSITY OF THE HOLY GHOST, priority 2014, published 2015)

melting point [°C] | Structure (SMILES)
54 to 55 | [C-]#[N+]CSc1c(OC)cccc1C(F)(F)F [Example 17, 2-((Isocyanomethyl)sulfanyl)-1-methoxy-3-(trifluoromethyl)benzene]
47 to 48 | [C-]#[N+]CSc1c(OC)cccc1OC [Example 16, (2,6-dimethoxyphenyl)(isocyanomethyl)sulfane]
